Laboratory results published in the supplement of paper PMC10331698.
± gives the standard deviation of the averaged measurements.

How the values were obtained:
Experiment in all cases: level (log10 ratio to DMSO vehicle control); higher = higher biomarker level / cell amount than vehicle control
Conditions in all cases: in DMSO
[1] = compound: FC(F)(F)C(F)(F)C(F)(F)C(F)(F)C(F)(F)C(F)(F)C(F)(F)CCI [1-Iodo-1H,1H,2H,2H-perfluorononane]
Description: (§1)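 BioMAP Diversity Plus panel of 12 human primary cell co-culture systems (3C, 4H, LPS, SAg, BT, BF4T, BE3C, CASM3C, HDF3CGF, KF3CT, MyoF, Mphg). Compounds were added 1 h before stimulation and left for 24 h (MyoF 48 h; BT 72 h for soluble read-outs or 6 d for IgG). Biomarkers were read by ELISA, cytotoxicity by SRB, PBMC viability and proliferation by Alamar Blue. Each well value was divided by the mean of 8 DMSO control wells on the same plate and log10 transformed; duplicate blinded samples were tested at 4 concentrations.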

[2] = compound: O=S(=O)(O)C(F)(F)C(F)(F)C(F)(F)C(F)(F)C(F)(F)C(F)(F)C(F)(F)C(F)(F)F [Potassium perfluorooctanesulfonate]
Description: as §1

[3] = compound: C=CC(=O)OCCC(F)(F)C(F)(F)C(F)(F)C(F)(F)F [2-(Perfluorobutyl)ethyl acrylate]
Description: as §1

[4] = compound: O=C(O)C(F)(F)C(F)(F)C(F)(F)C(F)(F)C(F)(F)F [Perfluorohexanoic acid]
Description: as §1

[5] = compound: O=C(O)C(F)(F)C(F)(F)C(F)(F)C(=O)O [Hexafluoroglutaric acid]
Description: as §1

[6] = compound: O=S(=O)(O)C(F)(F)C(F)(F)C(F)(F)C(F)(F)C(F)(F)C(F)(F)C(F)(F)C(F)(F)F [Perfluorooctanesulfonic acid]
Description: as §1

[7] = compound: O=C(O)C(F)(F)C(F)(F)C(F)(F)C(F)(F)C(F)(F)C(F)(F)C(F)(F)C(F)(F)C(F)(F)C(F)(F)C(F)(F)C(F)(F)C(F)(F)F [Perfluorotetradecanoic acid]
Description: as §1

Row | Test System | level (log10) ([1]; 6700 nM) | level (log10) ([1]; 20000 nM) | level (log10) ([2]; 6700 nM) | level (log10) ([2]; 20000 nM) | level (log10) ([2]; 60000 nM) | level (log10) ([3]; 6700 nM) | level (log10) ([3]; 20000 nM) | level (log10) ([3]; 60000 nM) | level (log10) ([4]; 6700 nM) | level (log10) ([4]; 20000 nM) | level (log10) ([4]; 60000 nM) | level (log10) ([5]; 6700 nM) | level (log10) ([5]; 20000 nM) | level (log10) ([5]; 60000 nM) | level (log10) ([6]; 6700 nM) | level (log10) ([6]; 20000 nM) | level (log10) ([6]; 60000 nM) | level (log10) ([7]; 6700 nM) | level (log10) ([7]; 20000 nM)
1 | LPS:sPGE2 | -0.0095 ± 0.0021 | -0.03 ± 0.017 | -0.033 ± 0.042 | -0.0005 ± 0.03 | -0.053 ± 0.096 | -0.0675 ± 0.022 | -0.099 ± 0.0085 | -0.101 ± 0.021 | 0.025 ± 0.052 | 0.013 ± 0.021 | -0.009 ± 0.041 | -0.0265 ± 0.028 | -0.039 ± 0.031 | -0.0185 ± 0.069 | 0.01 ± 0.035 | -0.0315 ± 0.0092 | -0.075 ± 0.013 | 0.0005 ± 0.011 | 0.0255 ± 0.019
2 | LPS:sTNF-alpha | 0.0075 ± 0.0035 | 0.0035 ± 0.0021 | -0.03 ± 0.073 | -0.047 ± 0.1 | -0.0915 ± 0.15 | -0.009 ± 0.014 | -0.0025 ± 0.018 | -0.0165 ± 0.025 | -0.009 ± 0.0014 | -0.0005 ± 0.021 | -0.0515 ± 0.0021 | 0.0045 ± 0.026 | -0.0025 ± 0.022 | 0.0035 ± 0.0064 | 0.0195 ± 0.079 | -0.043 ± 0.062 | -0.0545 ± 0.076 | -0.009 ± 0.037 | 0.003 ± 0.018
3 | SAg:CCL2/MCP-1 | -0.0145 ± 0.0078 | -0.0025 ± 0.049 | -0.015 ± 0.0071 | -0.0025 ± 0.0021 | 0.004 ± 0.013 | -0.0205 ± 0.012 | -0.083 ± 0.0057 | -0.141 ± 0.035 | -0.01 ± 0.0057 | -0.0255 ± 0.0078 | 0.0135 ± 0.018 | -0.028 ± 0.0071 | -0.0205 ± 0.0035 | -0.0205 ± 0.016 | 0.003 | 0.004 ± 0.0042 | 0.0015 ± 0.0064 | -0.021 ± 0.0057 | -0.0185 ± 0.0064
4 | SAg:CD38 | 0.007 ± 0.03 | -0.007 ± 0.042 | -0.0085 ± 0.0092 | -0.01 ± 0.013 | -0.023 ± 0.02 | -0.007 ± 0.028 | -0.0105 ± 0.023 | -0.126 ± 0.0092 | 0.003 ± 0.023 | -0.004 ± 0.0014 | -0.0005 ± 0.025 | -0.002 ± 0.0071 | -0.0075 ± 0.00071 | 0.0075 ± 0.021 | -0.01 ± 0.021 | -0.0075 ± 0.00071 | -0.037 ± 0.018 | -0.0205 ± 0.03 | -0.018 ± 0.016
5 | SAg:CD40 | -0.006 ± 0.021 | -0.0065 ± 0.0092 | -0.005 ± 0.0057 | -0.0205 ± 0.039 | -0.032 ± 0.042 | -0.0225 ± 0.0064 | -0.0405 ± 0.0035 | -0.153 ± 0.018 | 0.0065 ± 0.016 | -0.0145 ± 0.012 | -0.0095 ± 0.021 | -0.012 ± 0.0014 | -0.0225 ± 0.022 | 0.0095 ± 0.0092 | -0.0165 ± 0.05 | -0.032 ± 0.038 | -0.054 ± 0.013 | -0.0395 ± 0.069 | -0.081 ± 0.085
6 | SAg:CD62E/E-Selectin | 0 ± 0.014 | -0.0225 ± 0.053 | -0.004 ± 0.0057 | 0.0315 ± 0.013 | 0.033 | -0.0185 ± 0.012 | -0.1 ± 0.016 | -0.625 ± 0.068 | 0.001 ± 0.018 | -0.01 ± 0.023 | 0.0195 ± 0.005 | -0.004 ± 0.033 | -0.008 ± 0.052 | -0.0025 ± 0.0078 | 0.012 ± 0.014 | 0.0205 ± 0.0021 | 0.04 ± 0.028 | 0 ± 0.0028 | 0.019 ± 0.0028
7 | SAg:CD69 | -0.011 ± 0.017 | -0.0015 ± 0.018 | -0.0075 ± 0.013 | -0.002 ± 0.014 | -0.002 ± 0.021 | -0.028 ± 0.0028 | -0.0845 ± 0.026 | -0.225 ± 0.037 | -0.0065 ± 0.00071 | -0.0115 ± 0.021 | -0.0125 ± 0.0092 | -0.0125 ± 0.0064 | -0.016 ± 0.013 | 0.005 ± 0.0042 | -0.013 ± 0.0014 | -0.0035 ± 0.018 | 0.0035 ± 0.016 | -0.0155 ± 0.016 | -0.018 ± 0.028
8 | SAg:CXCL8/IL-8 | -0.0055 ± 0.019 | 0.004 ± 0.045 | -0.0055 ± 0.018 | 0.0145 ± 0.036 | 0.025 ± 0.027 | -0.029 ± 0.0099 | -0.103 ± 0.013 | -0.31 ± 0.064 | -0.049 ± 0.052 | -0.009 ± 0.038 | 0.0035 ± 0.084 | -0.011 | -0.041 ± 0.042 | 0.0285 ± 0.077 | -0.015 | 0.01 ± 0.0057 | 0.041 ± 0.0085 | -0.028 ± 0.051 | 0.0035 ± 0.069
9 | SAg:CXCL9/MIG | -0.009 ± 0.0071 | 0.006 ± 0.0057 | -0.0135 ± 0.00071 | 0.005 ± 0.0057 | -0.0035 ± 0.019 | -0.007 ± 0.016 | 0.001 ± 0.0057 | -0.004 ± 0.013 | -0.0005 ± 0.0064 | -0.001 ± 0.0085 | 0.0055 ± 0.005 | -0.0015 ± 0.00071 | -0.012 ± 0.0042 | -0.0005 ± 0.005 | -0.0035 ± 0.0035 | 0.0105 ± 0.012 | 0.005 ± 0.013 | -0.004 ± 0.014 | 0.001 ± 0.0085
10 | SAg:PBMC Cytotoxicity | -0.005 ± 0.045 | 0.0205 ± 0.035 | 0.0165 ± 0.0092 | 0.012 ± 0.013 | 0.0315 ± 0.029 | -0.034 ± 0.0085 | -0.0385 ± 0.011 | -0.125 ± 0.028 | -0.0155 ± 0.046 | 0.002 ± 0.0028 | 0.009 ± 0.073 | 0.0035 ± 0.0078 | 0.014 ± 0.0042 | -0.005 ± 0.058 | 0.0135 ± 0.0092 | 0.021 ± 0.013 | 0.0185 ± 0.013 | -0.051 ± 0.014 | -0.016 ± 0.024
11 | SAg:Proliferation | -0.0025 ± 0.063 | -0.0055 ± 0.074 | 0.0005 ± 0.0021 | 0.0495 ± 0.0035 | 0.066 ± 0.051 | -0.043 ± 0.035 | -0.122 ± 0.035 | -0.372 ± 0.1 | 0.0065 ± 0.011 | 0.003 ± 0.021 | 0.027 ± 0.0042 | -0.019 ± 0.0071 | -0.0445 ± 0.033 | -0.0275 ± 0.013 | 0.001 ± 0.031 | 0.0185 ± 0.011 | 0.0675 ± 0.00071 | -0.038 ± 0.045 | -0.014 ± 0.025
12 | SAg:SRB | 0.0175 ± 0.005 | 0.031 ± 0.017 | -0.0055 ± 0.028 | -0.0255 ± 0.035 | -0.0335 ± 0.0035 | 0.009 ± 0.0071 | 0.0115 ± 0.0092 | -0.0175 ± 0.028 | -0.0055 ± 0.0035 | -0.0135 ± 0.0035 | -0.001 ± 0.0028 | -0.0055 ± 0.00071 | -0.0105 ± 0.016 | -0.0035 ± 0.016 | 0.004 ± 0.0042 | -0.0095 ± 0.0078 | -0.0265 ± 0.011 | -0.0025 ± 0.013 | -0.008 ± 0.024
